# According to patent US20050124963A1, “Method for treating aspects of alcoholism, addiction and psychosis” (priority 2003, published 2005):
# Where two headings read alike, the source gives them in different places.
# Assays:
# D2 receptor = D2 receptor (Homo sapiens, UniProt P14416); conditions: 1-100 nM dopamine, in vitro; cited from earlier work
# striatal D2 receptors = biological target: T1, striatal D2 receptors (Rattus norvegicus, UniProt P61169); test: [3H]PHNO binding to striatal D2 receptors; conditions: control striata
# T1 construct: each rat underwent CO2 narcosis and cervical dislocation; the striata were removed; from tissue; host or cells: rat striatum (male Sprague Dawley)
# T1 sequence (P61169 whole entry): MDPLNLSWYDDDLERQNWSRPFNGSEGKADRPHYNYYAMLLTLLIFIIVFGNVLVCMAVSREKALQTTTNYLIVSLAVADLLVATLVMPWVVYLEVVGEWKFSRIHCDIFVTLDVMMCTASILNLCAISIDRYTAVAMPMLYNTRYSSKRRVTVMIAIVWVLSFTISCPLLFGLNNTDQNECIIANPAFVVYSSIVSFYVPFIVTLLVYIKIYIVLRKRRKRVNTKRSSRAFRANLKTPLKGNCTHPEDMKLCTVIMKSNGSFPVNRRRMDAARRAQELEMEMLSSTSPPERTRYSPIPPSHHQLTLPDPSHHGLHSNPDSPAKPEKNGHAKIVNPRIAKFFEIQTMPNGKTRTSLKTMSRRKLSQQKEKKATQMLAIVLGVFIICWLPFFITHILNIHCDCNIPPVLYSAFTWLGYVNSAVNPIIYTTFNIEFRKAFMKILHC
# Protocol: To induce ethanol dependence, rats (male Sprague Dawley, 200 g) received an intraperitoneal injection of 0.9% NaCl or 2 g/kg ethanol twice daily (i.e., 1.4 ml of 18% ethanol [in 0.9% NaCl] per 100 g at 9 AM and again at 3 PM daily) for 10 days (Lindholm et al., Alcohol 22: 165-171, 2000). On different days during the withdrawal period, each rat underwent CO2 narcosis and cervical dislocation; the striata were removed. The frozen (−70° C.) striata were blotted and weighed. […] The binding of [^3H]PHNO (or [+]-4-propyl-9-hydroxynaphthoxazine) (0.1 to 4.5 nM; […]; custom synthesized by New England Nuclear Corp.; non-specific binding defined by 10 μM S-(−)-sulpiride) to striatal D2 receptors was done as reported elsewhere (Seeman et al., Synapse 14: 254-262, 1993; Synapse 46: 235-239, 2002).
# To confirm the elevation of D2^High sites by another method, [^3H]PHNO (or [+]-4-propyl-9-hydroxynaphthoxazine), a selective D2 agonist (Seeman et al., Synapse 14: 254-262, 1993) can be used.
# [1] = system: high-affinity states of D2; conditions: rats sensitized to amphetamine; cited from earlier work
# [2] = biological target: T2, high-affinity state of dopamine D2 receptor (D2High) (Rattus norvegicus, UniProt P61169)
# T2 sequence (P61169 whole entry): as above
# [3] = biological target: T2, high-affinity state of dopamine D2 receptor (D2High); conditions: 7 days withdrawal, [3H]PHNO
# [4] = system: high-affinity state of dopamine D2 receptor (D2High); type: in vivo, rat
# [5] = first eight days after stopping ethanol, [3H]raclopride
# D2 receptor, sequence (P14416 whole entry): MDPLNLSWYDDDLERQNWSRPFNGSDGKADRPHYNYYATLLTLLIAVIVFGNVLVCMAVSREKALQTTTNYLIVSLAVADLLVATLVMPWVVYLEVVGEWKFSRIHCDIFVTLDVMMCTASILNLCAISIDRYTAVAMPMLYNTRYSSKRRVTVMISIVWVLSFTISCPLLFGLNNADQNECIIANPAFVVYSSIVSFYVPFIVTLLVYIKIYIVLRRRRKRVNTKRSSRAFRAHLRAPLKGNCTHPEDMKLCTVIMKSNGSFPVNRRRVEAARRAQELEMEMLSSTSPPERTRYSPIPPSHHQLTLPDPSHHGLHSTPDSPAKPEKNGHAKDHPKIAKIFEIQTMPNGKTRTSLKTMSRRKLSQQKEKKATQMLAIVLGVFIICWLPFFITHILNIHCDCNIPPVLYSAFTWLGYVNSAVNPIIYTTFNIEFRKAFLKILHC
smiles,measurement,setting,value
CCN1CCC[C@H]1CNC(=O)c1c(O)c(Cl)cc(Cl)c1OC (racemic) [[^3H]raclopride],displacement by low concentrations of dopamine,D2 receptor,not significantly displaced
"CCCN1CCOC2c3cc(O)ccc3CCC21 (stereo not drawn) [[^3H]PHNO, [+]-4-propyl-9-hydroxynaphthoxazine]",Kd,striatal D2 receptors,0.71 nM
CC(N)Cc1ccccc1 (stereo not drawn) [amphetamine],elevation of high-affinity states of D2,[1],over 350%
CCO [ethanol],duration of elevation of D2High sites after ethanol withdrawal,[2]; before returning to normal,almost two weeks
same,D2High sites,[2]; day 15 after stopping ethanol (back to normal),≤ 2 pmol/g
same,D2High sites,[2]; days 11 and 12 after stopping ethanol,4.8 pmol/g
same,increase in D2High,[2]; ethanol-withdrawn,3.2 fold
same,D2 density,"[2]; first eight days after stopping ethanol (2 g/kg i.p. twice daily, 10 days), [3H]raclopride, no guanilylimidodiphosphate",19 ± 0.8 pmol/g
same,D2High density (increase in receptor density with guanilylimidodiphosphate),[2]; [5],7.2 ± 0.6 pmol/g
same,D2 density in the presence of guanilylimidodiphosphate,[2]; [5],26.1 ± 0.8 pmol/g
same,increase of D2High over control value of 2 pmol/g,"[2]; upon withdrawal of ethanol, [3H]raclopride",360%
same,increase of D2High over control value of 2.6 pmol/g,[3],273%
same,D2High,[3]; ethanol-treated striata,7.1 pmol/g
FC(F)OC(Cl)C(F)(F)F (stereo not drawn) [isoflurane],D2High density,"[4]; ethanol-treated rats five days into withdrawal, isoflurane one hour (deep stage 3 surgical anesthesia), striata 24 hours later",1.3 pmol/g
same,effect on elevated D2High,"[4]; one hour of deep general anesthesia, ethanol-withdrawn rats",restored D2^High to normal
